According to patent US20170055529A1, “BROAD SPECTRUM WEED CONTROL IN FLOODED RICE BY IN-WATER APPLICATION OF AUXIN HERBICIDES” (priority 2015, published 2017):

What was measured:
Format in all cases: in vivo
[1] = tested on: ECHCG = Echinochloa crus-galli (barnyardgrass); experiment: Greenhouse in-water herbicidal activity (large pots); conditions: 744 h, read-out: Percent (%) Visual Injury Ratings - 31 DAA, ECHCG
Experimental: (§1) Weed seeds or nutlets of the desired test plant species were planted in puddled soil (mud) prepared by mixing shredded topsoil and deionized (DI) water in a 1:1 ratio in a standard cement mixer. […] Osmocote® (17:6:10 N:P:K; 0.5 teaspoon) was added to the bottom of a container. The container is a high-density polyethylene (HDPE) round container (4.163 L (1.1 gallon), 15 cm high×20.55 cm diameter; for treatment purposes, the surface area is calculated as 331 cm^2 with 1 hectare equivalent to 10^8 cm^2). The mud mixture (2,750 mL) was added to the container filling it half full. Stakes were placed horizontally in each container to create separate areas for which to plant each different plant species. Water was added on a regular basis to maintain the paddy flood, and supplemental lighting was provided with overhead metal halide 1000-Watt lamps as necessary.
(§2) Once the plants had reached the proper size (the growth stage of the various species ranged from 2 to 4 leaves), the containers were flooded with city water to a depth of 3 cm submerging the plants 80-100%. The outside of each container was measured and marked at a 3-cm line with a black permanent marker to eliminate water level variability during the trial period. Water was added daily to maintain this water depth. Triclopyr triethylammonium (as Garlon® 3 A, 360 g ae/L); triclopyr butoxyethyl ester (as Garlon® 4, 480 g ae/L); fluroxypyr methylheptyl ester (meptyl or MHE, as Starane® Ultra, 333 g ae/L); fluroxypyr acid (850 grams acid equivalent per kilogram (g ae/kg)); 2,4-dichlorophenoxyacetic acid dimethylammonium (2,4-D DMA, as Weedar® 64 EC, 456 g ae/L); 2,4-dichlorophenoxyacetic acid 2-ethylhexyl ester (2,4-D 2-EHE, as Agri Star®, 456 g ae/L); clopyralid olamine (as Stinger®, 360 g ae/L); and penoxsulam (as Grasp® SC, 240 g ai/L) were used. Each herbicide treatment for each pot was mixed in water (80 mL) and applied directly into the paddy water at rates adjusted to the surface area. The dry formulations were pre-weighed based on the rate of the active ingredient to be applied on a per unit area basis, placed in 30 mL vials, and capped. Granules were spread onto the top of the water in each pot and dispersed throughout the water. Treatments were replicated 3 times.
(§3) The treated plants and control plants were placed in a greenhouse as described above and water was added as needed to maintain a flood depth of 3 cm. […]

[2] = tested on: MOOVA = Monochoria vaginalis (monochoria); experiment: as above; conditions: for Percent (%) Visual Injury Ratings - 16 DAA, MOOVA / Percent (%) Visual Injury Ratings - 22 DAA, MOOVA: greenhouse large pots; for pest or weed control at 280 g/ha / pest or weed control at 560 g/ha / pest or weed control at 1120 g/ha: Pontederia vaginalis, 744 h, read-out: Percent (%) Visual Injury Ratings - 31 DAA, MOOVA
Experimental: as §1, §2, §3

[3] = tested on: ECHCG = Echinochloa crus-galli (barnyardgrass); experiment: Field trial in-water herbicidal efficacy
Experimental: (§4) Field trials were conducted in rice using standard herbicide small plot research methodology. Plot size was 2 square meters (m^2) using 1.6 meter (m) diameter rings placed into the rice paddy soil with capability for flooding to maintain good rice cultural practices and rice growing conditions. There were 3 replicates per treatment. Rice was Japonica type that was hand-transplanted into the saturated soil in the rings as per normal cultural practices. The transplanted rice crop was grown using normal cultural practices for fertilization, watering, flooding and maintenance to ensure good growth of the crop and the weeds under transplanted rice conditions in Taiwan.
(§5) Treatments were applied by mixing the treatments with deionized water just prior to water-injection application by hand to multiple sides in the ring plots. For each 2 m^2 plot, 50 mL deionized water was mixed with the appropriate formulated product amounts to treat 2 m^2 to achieve the desired application rates based on unit area of application (hectare). Ring plot water depth was kept at 3 to 7 cm deep before and after water-injection application.
(§6) The rice and weeds were evaluated at 28 days after application (DAA). Triclopyr triethylammonium (as Garlon® 3 A, 360 g ae/L); fluroxypyr methylheptyl ester (meptyl or MHE, as Starane® Ultra, 333 g ae/L); 2,4-dichlorophenoxyacetic acid dimethylammonium (2,4-D AMINE, 400 g ae/L SL); penoxsulam (as Grasp® SC, 240 g ai/L); and bensulfuron-methyl (as LONDAX® 10% WAY WP) were used.
(§7) The treated and control plots were rated at 28 days after application. Ratings were based on percent (%) visual weed control, where 0 corresponds to no control and 100 corresponds to complete control.

[4] = tested on: LEFCH = Leptochloa chinensis (Chinese sprangletop); experiment: Field trial in-water herbicidal efficacy
Experimental: as §4, §5, §6, §7

[5] = tested on: MOOVA = Monochoria vaginalis (monochoria); experiment: Field trial in-water herbicidal efficacy
Experimental: as §4, §5, §6, §7

[6] = tested on: CYPDI = Cyperus difformis (small-flower flatsedge); experiment: Field trial in-water herbicidal efficacy
Experimental: as §4, §5, §6, §7

[7] = tested on: SCPJU = Schoenoplectus juncoides (Japanese bulrush); experiment: Field trial in-water herbicidal efficacy
Experimental: as §4, §5, §6, §7

Compound | pest or weed control at 280 g/ha [1] | pest or weed control at 560 g/ha [1] | pest or weed control at 1120 g/ha [1] | Percent (%) Visual Injury Ratings - 16 DAA, MOOVA ([2]; 35 g ae/ha) | Percent (%) Visual Injury Ratings - 22 DAA, MOOVA ([2]; 35 g ae/ha) | Percent (%) Visual Injury Ratings - 16 DAA, MOOVA ([2]; 70 g ae/ha) | Percent (%) Visual Injury Ratings - 22 DAA, MOOVA ([2]; 70 g ae/ha) | Percent (%) Visual Injury Ratings - 16 DAA, MOOVA ([2]; 140 g ae/ha) | Percent (%) Visual Injury Ratings - 22 DAA, MOOVA ([2]; 140 g ae/ha) | Percent (%) Visual Injury Ratings - 16 DAA, MOOVA ([2]; 280 g ae/ha) | Percent (%) Visual Injury Ratings - 22 DAA, MOOVA ([2]; 280 g ae/ha) | pest or weed control at 280 g/ha [2] | pest or weed control at 560 g/ha [2] | pest or weed control at 1120 g/ha [2] | Percent (%) Visual Injury Ratings - 28 DAA, ECHCG ([3]; 140 g ae/ha in-water 10 DAT) | Percent (%) Visual Injury Ratings - 28 DAA, ECHCG ([3]; 280 g ae/ha in-water 10 DAT) | Percent (%) Visual Injury Ratings - 28 DAA, ECHCG ([3]; 560 g ae/ha in-water 10 DAT) | Percent (%) Visual Injury Ratings - 28 DAA, LEFCH ([4]; 140 g ae/ha in-water 10 DAT) | Percent (%) Visual Injury Ratings - 28 DAA, LEFCH ([4]; 280 g ae/ha in-water 10 DAT) | Percent (%) Visual Injury Ratings - 28 DAA, LEFCH ([4]; 560 g ae/ha in-water 10 DAT) | other results
O=C(O)COc1ccc(Cl)cc1Cl [2,4-D DMA (Weedar ® 64), dimethylammonium 2-(2,4-dichlorophenoxy)acetate] | 30% | 38% | 65% | 98% | 84% | 90% | 72% | 87% | 88% | 89% | 98% | 100% | 100% | 100% | 0.0% | 0.0% | 0.0% | 0.0% | 0.0% | 0.0% | Percent (%) Visual Injury Ratings - 28 DAA, MOOVA ([5]; 140 g ae/ha in-water 10 DAT): 0.0%; Percent (%) Visual Injury Ratings - 28 DAA, MOOVA ([5]; 280 g ae/ha in-water 10 DAT): 6.7%; Percent (%) Visual Injury Ratings - 28 DAA, MOOVA ([5]; 560 g ae/ha in-water 10 DAT): 93.3%; Percent (%) Visual Injury Ratings - 28 DAA, CYPDI ([6]; 140 g ae/ha in-water 10 DAT): 0.0%; Percent (%) Visual Injury Ratings - 28 DAA, CYPDI ([6]; 280 g ae/ha in-water 10 DAT): 94.3%; Percent (%) Visual Injury Ratings - 28 DAA, CYPDI ([6]; 560 g ae/ha in-water 10 DAT): 100.0%; Percent (%) Visual Injury Ratings - 28 DAA, SCPJU ([7]; 140 g ae/ha in-water 10 DAT): 10.0%; Percent (%) Visual Injury Ratings - 28 DAA, SCPJU ([7]; 280 g ae/ha in-water 10 DAT): 90.0%; Percent (%) Visual Injury Ratings - 28 DAA, SCPJU ([7]; 560 g ae/ha in-water 10 DAT): 100.0%
CCCCCCC(C)OC(=O)COc1nc(F)c(Cl)c(N)c1Cl (stereo not drawn) [Fluroxypyr-meptyl (Starane ® Ultra), 1-methylheptyl 2-[(4-amino-3,5-dichloro-6-fluoro-2-pyridinyl)oxy]acetate] | 45% | 75% | 99% | 27% | 0% | 27% | 3% | 13% | 0% | 5% | 15% | 100% | 100% | 100% | 0.0% | 0.0% | 0.0% | 0.0% | 0.0% | 0.0% | Percent (%) Visual Injury Ratings - 28 DAA, MOOVA ([5]; 140 g ae/ha in-water 10 DAT): 0.0%; Percent (%) Visual Injury Ratings - 28 DAA, MOOVA ([5]; 280 g ae/ha in-water 10 DAT): 0.0%; Percent (%) Visual Injury Ratings - 28 DAA, MOOVA ([5]; 560 g ae/ha in-water 10 DAT): 60.0%; Percent (%) Visual Injury Ratings - 28 DAA, CYPDI ([6]; 140 g ae/ha in-water 10 DAT): 95.0%; Percent (%) Visual Injury Ratings - 28 DAA, CYPDI ([6]; 280 g ae/ha in-water 10 DAT): 98.7%; Percent (%) Visual Injury Ratings - 28 DAA, CYPDI ([6]; 560 g ae/ha in-water 10 DAT): 100.0%; Percent (%) Visual Injury Ratings - 28 DAA, SCPJU ([7]; 140 g ae/ha in-water 10 DAT): 88.3%; Percent (%) Visual Injury Ratings - 28 DAA, SCPJU ([7]; 280 g ae/ha in-water 10 DAT): 98.0%; Percent (%) Visual Injury Ratings - 28 DAA, SCPJU ([7]; 560 g ae/ha in-water 10 DAT): 99.3%
O=C(O)COc1nc(Cl)c(Cl)cc1Cl [Triclopyr triethanolamine (Garlon ® 3A), triethylammonium 2[(3,5,6-trichloro-2-pyridinyl)oxy]acetate] | 65% | 75% | 89% | 84% | 92% | 89% | 89% | 78% | 82% | 98% | 100% | 100% | 100% | 100% | 0.0% | 0.0% | 0.0% | 0.0% | 0.0% | 0.0% | Percent (%) Visual Injury Ratings - 28 DAA, MOOVA ([5]; 140 g ae/ha in-water 10 DAT): 0.0%; Percent (%) Visual Injury Ratings - 28 DAA, MOOVA ([5]; 280 g ae/ha in-water 10 DAT): 0.0%; Percent (%) Visual Injury Ratings - 28 DAA, MOOVA ([5]; 560 g ae/ha in-water 10 DAT): 0.0%; Percent (%) Visual Injury Ratings - 28 DAA, CYPDI ([6]; 140 g ae/ha in-water 10 DAT): 0.0%; Percent (%) Visual Injury Ratings - 28 DAA, CYPDI ([6]; 280 g ae/ha in-water 10 DAT): 0.0%; Percent (%) Visual Injury Ratings - 28 DAA, CYPDI ([6]; 560 g ae/ha in-water 10 DAT): 0.0%; Percent (%) Visual Injury Ratings - 28 DAA, SCPJU ([7]; 140 g ae/ha in-water 10 DAT): 0.0%; Percent (%) Visual Injury Ratings - 28 DAA, SCPJU ([7]; 280 g ae/ha in-water 10 DAT): 0.0%; Percent (%) Visual Injury Ratings - 28 DAA, SCPJU ([7]; 560 g ae/ha in-water 10 DAT): 0.0%
